This note sets out measurements from patent EP0663826B1, “AMINO ACIDS CONTAINING PARENTERAL FORMULATIONS FOR THE TREATMENT OF HYPOTENSION AND RELATED PATHOLOGIES” (BOARD OF REGENTS THE UNIVERSITY OF TEXAS SYSTEM, priority 1991, dated 1993).

Molecules are shown by their SMILES.

The subject of this test is IL-1-Induced Hypotension in Dogs. Description: IL-1-induced hypotension in dogs. In kind it is in vivo. The settings on record: for MAP after arginine administration: then L-arginine 400 mg/kg. The method, then:
• FIGURE 1 - Reversal of hypotension associated with the administration of IL-1 to dogs. The tracing shown is a representative experiment that was repeated four times. Each dog was anesthetized and […] as described herein, and baseline cardiovascular data were monitored for 30 minutes. IL-1 was dissolved in phosphate-buffered saline (pH 7.4) containing 1 mg/ml of dog albumin, and the resulting solution was infused intravenously for three minutes to deliver a dose of 50 µg/kg. MAP was continuously monitored; when a stable nadir was reached and maintained for more than 10 minutes or when MAP dropped below 50 mm Hg, NAA (20 mg/kg in 10 ml phosphate-buffered saline) was administered by intravenous infusion for 30 seconds. Sixty minutes after MAP was restored to baseline or higher values, L-arginine (400 mg/kg in 20 ml phosphate-buffered saline) was administered by slow intravenous infusion for 5 minutes. Anesthetized dogs given IL-1 (50 µg/kg) developed a progressive, moderately severe hypotension, with MAP decreasing from a baseline of 111 +/- 7 mm Hg to 80 +/- 2 mm Hg within about 3 hours. Hypotension was rapidly reversed by the intravenous administration of a single bolus dose of NAA (20 mg/kg, 88 umol/kg), with MAP increasing by from 46 +/- 9 mm Hg (58%_ to 125 +/- 8 mm Hg. • FIGURES 2A, 2B, 2C - Inhibition of IL-1-activated NO· production by N^ω-substituted arginine analogues. Figure 2A: Comparison of nitrite synthesis inhibition in smooth muscle cells by the L-isomers of NAA, NMA, and NNA and by the D-isomer of NMA. Figure 2B: Concentration dependence of nitrite synthesis inhibition in smooth muscle cells by NAA as a function of different L-arginine concentration in the culture medium. Confluent monolayers of smooth muscle cells in 96-well microtiter plates were treated with a combination of 100 ng/ml IL-1 and 50 ng/ml IFN-γ for 24 hours. Cells were then washed with Hanks' balanced salt solution, and fresh medium containing the indicated concentration of L-arginine was added. Points indicate means ± SD of nitrite production, expressed as percent of control, during a 16-hour exposure to arginine analogues (n = 3-4). Figure 2C: Effect of NAA on smooth muscle cell NO· synthase. Cytosol from cytokine-induced smooth muscle cells (∼2 µg protein) was incubated with 1 mM L-arginine, 0.5 mM NADPH, 1 mM dithiothreitol, 10 µM flavin-adenine dinucleotide, 10 µM tetrahydrobiopterin, and 0.1 U/ml dihydropteridine reductase in a total volume of 100 µL. The time course of Fe^2+-myoglobin oxidation was measured in the absence (control) or presence of 300 µM NAA (+NAA). […] FIGURE A: Time course of nitrite synthesis elicited by 40 ng/mL IL-1 alone (open circles) and by IL-1 in the presence of 50 ng/ml IFN-γ (open triangles). […] Inclusion of IL-1 receptor antagonist (40 µg/mL; filled symbols) in the culture medium inhibited nitrite production stimulated by both IL-1 and IL-1 plus IFN-γ. FIGURE B: IL-1 concentration dependence for smooth muscle cell nitrite production. Data points indicate nitrite produced during a 29-hour incubation with the indicated concentration of IL-1 alone (open circles) or in the presence of IL-1 plus 50 ng/mL IFN-γ (open triangles). All values are means ± SD for nitrite production by confluent smooth muscle cell monolayers grown in 96-well microtiter plates (60-80 X 10^3 cells per well; n = 3-4).
Experiments were conducted on healthy mongrel dogs that were free of microfilaria and weighed 25-28 kg each. […]

`N=C(N)NCCC[C@H](N)C(=O)O` [L-arginine]: the “average decrease in systemic vascular resistance following arginine” value (IL-1-treated animals given NAA, then arginine) was 61%. The “MAP after arginine administration” value by setting is: (IL-1-treated dogs given NAA) 66 ± 27 mm Hg; (control dogs given NAA) “essentially at baseline levels”.
